Results taken from article PMC2939063, “In Vitro and In Vivo Studies of the Trypanocidal Properties of WRR-483 against Trypanosoma cruzi” (PLoS Neglected Tropical Diseases, 2010).

Key:
[1] = Pharmacokinetic study (SRI international); conditions: in vivo
Excerpt: In this study, we have identified WRR-483, as an effective agent to treat acute Chagas' disease in a murine model. […] The crystal structure of WRR-483 complexed to cruzain was solved and established the binding mode of the inhibitor to the enzyme. This structure was highlighted by the formation of a salt bridge between the guanidine moiety of the inhibitor and Glu208, but in a different conformation when compared to another structure of cruzain bound to a different arginine-containing inhibitor. […] The no observed adverse effect level (NOAEL) is higher than 100 mg/kg. […] Further studies to understand the precise mechanism of trypanocidal action of WRR-483 and design of analogs with improved bioavailability are currently underway.

[2] = biological target: T1, Rhodesain (Trypanosoma brucei rhodesiense, UniProt Q95PM0); experiment: Rhodesain enzyme assay (acetate buffer pH 5.5, Z-Phe-Arg-AMC); assay type: biochemical, T. brucei
T1 construct: made in house
Method: Cruzain[27],[28], rhodesain [29], and tbcatB [30] were recombinantly expressed as described previously. TbcatB assays were performed as described previously.[31] Cruzain (2 nM) or rhodesain (3 nM) was incubated with 0.5 to 10 µM inhibitor concentration in 100 mM sodium acetate at pH 5.5, containing 5 mM DTT (buffer A) for 5 min at room temperature. Then buffer A containing Z-Phe-Arg-AMC (Bachem, K M = 1 µM) was added to enzyme inhibitor to give 20 µM substrate concentration in 200 µL, and the increase in fluorescence (excitation at 355 nm and emission at 460 nm) was followed with an automated microtiter plate spectrofluorometer (Molecular Devices, Flex station). Inhibitor stock solutions were prepared at 20 mM in DMSO, and serial dilutions were made in DMSO (0.7% DMSO in assay). Controls were performed using enzyme alone and enzyme with DMSO. IC50 values were determined graphically using inhibitor concentrations in the linear portion of a plot of inhibition versus log[I] (seven concentrations tested with at least two in the linear range).
(§1) Inhibitor dilutions which produce simple exponential progress curves over a wide range of k obs, were used to determine kinetic parameters. The value of k obs, the rate constant for loss of enzyme activity, was determined from an equation for pseudo first order dynamics using Prism 4.0 (GraphPad). When k obs varied linearly with inhibitor concentration, k ass was determined by linear regression analysis. If the variation was hyperbolic, indicating saturation inhibition kinetics, k inact and K i were determined from an equation describing a two-step irreversible inhibitor mechanism [k obs = k inact [I]o/([I]o+Ki* (1+[S]o/K M))] and non-linear regression analysis Prism 4.0.[32] All values were corrected for substrate concentration.

[3] = biological target: T2, Cruzain (Trypanosoma cruzi, UniProt P25779); experiment: biochemical; assay type: biochemical
T2 construct: made in house
Method: For pH dependence studies, cruzain was tested at 4 nM in 5 µM Z-Phe-Arg-AMC in 0.15 M citrate phosphate buffer at pH 5.5 and pH 8.0 with 5 mM DTT, and 0.01% Triton-X 100. Enzyme was added to wells of a 96-well microtiter plate containing substrate and inhibitor diluted in DMSO (0.5% final concentration), or DMSO control. Final inhibitor concentration ranged from 0.01 µM to 10 µM. Experiments were done in triplicate. Assays were run at 25°C in an automated microtiter plate spectrofluorometer, with robotic delivery of enzyme and readings every 1.52 seconds throughout the assay, before and after enzyme addition.
as §1

[4] = biological target: T3, calpain-1 (Homo sapiens, UniProt P07384); experiment: Protease inhibition profiling (Reaction Biology Corp): calpain-1; assay type: biochemical; conditions: panel of 70 proteases
T3 construct: Reaction Biology Corp (screening service)
T3 sequence (P07384 1-714): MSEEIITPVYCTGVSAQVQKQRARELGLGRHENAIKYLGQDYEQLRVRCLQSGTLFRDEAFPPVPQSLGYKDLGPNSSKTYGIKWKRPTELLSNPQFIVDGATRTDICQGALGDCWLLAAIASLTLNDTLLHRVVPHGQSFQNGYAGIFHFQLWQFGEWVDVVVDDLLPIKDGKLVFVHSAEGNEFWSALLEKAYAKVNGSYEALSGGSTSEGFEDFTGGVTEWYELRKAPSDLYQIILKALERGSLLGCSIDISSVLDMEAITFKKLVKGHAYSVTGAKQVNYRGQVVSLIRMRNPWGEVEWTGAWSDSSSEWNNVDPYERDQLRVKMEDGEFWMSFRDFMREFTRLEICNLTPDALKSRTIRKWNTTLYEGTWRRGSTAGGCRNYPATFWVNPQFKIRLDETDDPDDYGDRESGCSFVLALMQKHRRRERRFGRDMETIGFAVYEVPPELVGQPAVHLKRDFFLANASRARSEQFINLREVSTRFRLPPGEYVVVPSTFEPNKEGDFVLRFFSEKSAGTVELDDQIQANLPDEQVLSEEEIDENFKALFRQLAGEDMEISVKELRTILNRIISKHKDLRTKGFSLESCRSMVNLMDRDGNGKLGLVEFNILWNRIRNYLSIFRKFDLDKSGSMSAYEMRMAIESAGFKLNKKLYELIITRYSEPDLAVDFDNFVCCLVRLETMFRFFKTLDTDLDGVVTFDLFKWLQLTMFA
T3 sequence (P04632 1-268 partner): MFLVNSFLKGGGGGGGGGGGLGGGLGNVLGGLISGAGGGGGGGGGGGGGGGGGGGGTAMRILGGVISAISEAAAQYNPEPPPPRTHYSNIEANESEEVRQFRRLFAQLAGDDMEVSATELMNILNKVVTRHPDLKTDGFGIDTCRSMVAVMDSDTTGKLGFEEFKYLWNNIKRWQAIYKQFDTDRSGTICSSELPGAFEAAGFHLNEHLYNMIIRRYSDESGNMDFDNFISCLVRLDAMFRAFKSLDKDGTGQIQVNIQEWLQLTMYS

[5] = pH 5.5, citrate phosphate buffer
[6] = pH 8.0, citrate phosphate buffer

T2 sequence (P25779 123-337 limits assumed): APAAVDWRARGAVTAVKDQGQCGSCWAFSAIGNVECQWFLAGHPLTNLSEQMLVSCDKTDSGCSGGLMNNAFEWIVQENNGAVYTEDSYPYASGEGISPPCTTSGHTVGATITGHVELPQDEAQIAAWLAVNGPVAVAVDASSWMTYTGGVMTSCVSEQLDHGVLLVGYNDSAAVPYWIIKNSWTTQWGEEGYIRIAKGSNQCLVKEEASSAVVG
T1 sequence (Q95PM0 entry or part of it): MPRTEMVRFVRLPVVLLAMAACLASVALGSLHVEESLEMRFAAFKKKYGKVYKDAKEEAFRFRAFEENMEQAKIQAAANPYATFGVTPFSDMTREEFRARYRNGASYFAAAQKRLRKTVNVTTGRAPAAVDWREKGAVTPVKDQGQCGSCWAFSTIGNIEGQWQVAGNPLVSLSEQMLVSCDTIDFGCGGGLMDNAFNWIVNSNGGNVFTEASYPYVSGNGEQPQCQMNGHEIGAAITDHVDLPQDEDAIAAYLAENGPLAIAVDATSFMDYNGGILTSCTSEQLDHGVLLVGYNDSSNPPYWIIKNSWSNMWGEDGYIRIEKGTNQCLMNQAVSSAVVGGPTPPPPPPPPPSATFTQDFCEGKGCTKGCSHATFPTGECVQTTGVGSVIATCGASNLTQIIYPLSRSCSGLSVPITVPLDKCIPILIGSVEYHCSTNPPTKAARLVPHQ

SMILES: CN1CCN(C(=O)N[C@@H](CCCNC(=N)N)C(=O)N[C@H](/C=C/S(=O)(=O)c2ccccc2)CCc2ccccc2)CC1 [WRR-483]
- Vd ([1]; 10 mg dose iv): 15.1 L/kg
- clearance ([1]; 10 mg dose iv): 27.5 mL/min/kg
- half-life ([1]; 10 mg dose iv): 6.4 h
- bioavailability ([1]; oral, read-out: oral bioavailability %F): < 1%
- k obs/[I] at 1 µM, Rhodesain ([2]; 100 mM sodium acetate pH 5.5, 5 mM DTT): No inhibition
- inhibition of rhodesain ([2]; even at 10 µM concentration): no inhibition
- improvement of cruzain IC50 at pH 8.0 than at pH 5.5 ([3]; citrate phosphate buffer): ~10 fold
- increase in the second-order rate of inactivation of cruzain, pH 8.0 vs pH 5.5 ([3]; citrate phosphate buffer): 4 fold
- IC50 [3, 5]: 70 ± 30 nM
- k inact/K i, cruzain [3, 5]: 14,000±240 s^-1 M^-1
- IC50 [3, 6]: 8 ± 2 nM
- k inact/K i, cruzain [3, 6]: 62,000±350 s^-1 M^-1
- inhibition of calpain-1 [4]: no inhibition
